These results are taken from US20160095843A1, “PYRAZOLOPYRROLIDINE DERIVATIVES AND THEIR USE IN THE TREATMENT OF DISEASE” (NOVARTIS AG, priority 2013, published 2016).

One assay relates to MV-4-11 cells. Description: Cell growth inhibition assay (CellTiter-Glo), MV-4-11. It is filed as cell-based. The following applies: Homo sapiens, MV4-11. The method in brief: (§1)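 Cellular ATP (CellTiter-Glo luminescence) measured after 4 days at 37° C., 5% CO2 of compound exposure, top concentration 10 μM in 3-fold steps, 0.1% DMSO. Readings corrected for no-cell background and a day-0 plate, normalised to vehicle and medium wells; half-maximal and total growth inhibition from four-parameter curves.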
In general terms: Cellular ATP, detected with luciferase, serves as a proxy for viable cell number.

The next assay has as its system THP-1 cells. Description: Cell growth inhibition assay (CellTiter-Glo), THP-1. The following applies: Homo sapiens. In kind it is cell-based. The method in brief: as §1
For a further assay, the system named is K-562 cells. Description: Cell growth inhibition assay (CellTiter-Glo), K-562. In kind it is cell-based, human. The following applies: Homo sapiens, K562. The method in brief: as §1

One may read the GI50 as the concentration at which growth is held to half of that of the control.

For `COc1ncc(-n2nc(C)c3c2C(=O)N(c2cc(C)c(=O)n(C)c2)[C@@H]3c2ccc(Cl)cc2)c(OC)n1` [Example 100, (R)-4-(4-chlorophenyl)-1-(2,4-dimethoxypyrimidin-5-yl)-5-(1,5-dimethyl-6-oxo-1,6-dihydropyridin-3-yl)-3-methyl-4,5-dihydropyrrolo[3,4-c]pyrazol-6(1H)-one], the GI50 in the assay with MV-4-11 cells amounted to 40.5 nM; in the assay with THP-1 cells, 88 nM; in the assay on K-562 cells it was 264 nM.

As for `Cc1nn(C2CNC2)c2c1C(c1ccc(Cl)cc1)N(c1cc(C)c3nnc(C)n3c1)C2=O` (stereo not drawn) [Example 151, 1-(azetidin-3-yl)-4-(4-chlorophenyl)-5-(3,8-dimethyl-[1,2,4]triazolo[4,3-a]pyridin-6-yl)-3-methyl-4,5-dihydropyrrolo[3,4-c]pyrazol-6(1H)-one], the figures for the GI50 with MV-4-11 cells, with THP-1 cells and with K-562 cells were 226 nM, 778 nM and 2610 nM, respectively.

In the case of `CNC(=O)n1nc(C)c2c1C(=O)N(c1cc(C)c3nnc(C)n3c1)C2c1ccc(Cl)cc1` (stereo not drawn) [Example 145, 4-(4-chlorophenyl)-5-(3,8-dimethyl-[1,2,4]triazolo[4,3-a]pyridin-6-yl)-N,3-dimethyl-6-oxo-5,6-dihydropyrrolo[3,4-c]pyrazole-1(4H)-carboxamide], the GI50 in the assay on MV-4-11 cells turned out to be 49.9 nM; in the assay on THP-1 cells, 176 nM; in the assay with K-562 cells, 875 nM.

In the case of `Cc1cc(N2C(=O)c3nn(C(C)C)c(C)c3C2c2ccc(Cl)cc2)cn(C)c1=O` (stereo not drawn) [Example 64, 4-(4-chlorophenyl)-5-(1,5-dimethyl-6-oxo-1,6-dihydropyridin-3-yl)-2-isopropyl-3-methyl-4,5-dihydropyrrolo-[3,4-c]pyrazol-6(2H)-one], the values for the GI50 with MV-4-11 cells, with THP-1 cells and in the assay on K-562 cells were 27.6 nM, 64.8 nM and 292 nM, respectively.

With `CCc1nn(-c2ccnn2C)c2c1C(c1ccc(Cl)cc1)N(c1cc(C)c(=O)n(C)c1)C2=O` (stereo not drawn) [Example 89, 4-(4-chlorophenyl)-5-(1,5-dimethyl-6-oxo-1,6-dihydropyridin-3-yl)-3-ethyl-1-(1-methyl-1H-pyrazol-5-yl)-4,5-dihydropyrrolo-[3,4-c]pyrazol-6(1H)-one], the 50% growth inhibitory concentration (GI50) in the assay with MV-4-11 cells stood at 46.5 nM; with THP-1 cells it was 40.6 nM; in the assay on K-562 cells it was 442 nM.

As to `COc1ncc(-n2nc3c(c2C(C)C)C(c2ccc(Cl)cc2)N(c2ccc4onc(C)c4c2)C3=O)c(OC)n1` (stereo not drawn) [Example 54, 4-(4-chlorophenyl)-2-(2,4-dimethoxypyrimidin-5-yl)-3-isopropyl-5-(3-methylbenzo-[d]isoxazol-5-yl)-4,5-dihydropyrrolo[3,4-c]pyrazol-6(2H)-one], the 50% growth inhibitory concentration (GI50) with MV-4-11 cells was found to be 458 nM; in the assay on THP-1 cells it was 637 nM; in the assay on K-562 cells, 1530 nM.

Turning to `Cc1nn(C2CN(C)C2)c2c1C(c1ccc(Cl)cc1)N(c1cc(C)c3nnc(C)n3c1)C2=O` (stereo not drawn) [Example 157, 4-(4-chlorophenyl)-5-(3,8-dimethyl-[1,2,4]triazolo[4,3-a]pyridin-6-yl)-3-methyl-1-(1-methylazetidin-3-yl)-4,5-dihydropyrrolo[3,4-c]pyrazol-6(1H)-one], the GI50 in the assay with MV-4-11 cells was determined as 50 nM; with THP-1 cells, 158 nM; in the assay on K-562 cells it was 534 nM.

As for `CCc1nn(C2CC2)c2c1C(c1ccc(Cl)cc1)N(c1cc(OC)c3nnc(C)n3c1)C2=O` (stereo not drawn) [Example 84, 4-(4-chlorophenyl)-1-cyclopropyl-3-ethyl-5-(8-methoxy-3-methyl-[1,2,4]triazolo[4,3-a]pyridin-6-yl)-4,5-dihydropyrrolo-[3,4-c]pyrazol-6(1H)-one], the 50% growth inhibitory concentration (GI50) with MV-4-11 cells amounted to 58.3 nM; with THP-1 cells, 86.9 nM; in the assay on K-562 cells, 384 nM.

With `Cc1nn(C2CC2)c2c1C(c1cccc(C(F)(F)F)c1)N(c1cc(C)c(=O)n(C)c1)C2=O` (stereo not drawn) [Example 96, 1-cyclopropyl-5-(1,5-dimethyl-6-oxo-1,6-dihydropyridin-3-yl)-3-methyl-4-(3-(trifluoromethyl)phenyl)-4,5-dihydropyrrolo[3,4-c]pyrazol-6(1H)-one], the concentration for 50% growth inhibition (GI50) with MV-4-11 cells was found to be 894 nM; with THP-1 cells it was 1260 nM; in the assay on K-562 cells, 5900 nM.

Regarding `Cc1cc(N2C(=O)c3c(c(C4CC4)nn3C)[C@H]2c2ccc(Cl)cc2)cn2c(C)nnc12` [Example 164, (R)-4-(4-chlorophenyl)-3-cyclopropyl-5-(3,8-dimethyl-[1,2,4]triazolo[4,3-a]pyridin-6-yl)-1-methyl-4,5-dihydropyrrolo-[3,4-c]pyrazol-6(1H)-one], the values for the GI50 with MV-4-11 cells, in the assay with THP-1 cells and in the assay with K-562 cells were 7.69 nM, 9.6 nM and 98.2 nM, respectively.

In the case of `CC(=O)N1CC(n2nc(C)c3c2C(=O)N(c2cc(C)c4nnc(C)n4c2)C3c2ccc(Cl)cc2)C1` (stereo not drawn) [Example 154, 1-(1-acetylazetidin-3-yl)-4-(4-chlorophenyl)-5-(3,8-dimethyl-[1,2,4]triazolo[4,3-a]pyridin-6-yl)-3-methyl-4,5-dihydropyrrolo[3,4-c]pyrazol-6(1H)-one], the 50% growth inhibitory concentration (GI50) was 59 nM with MV-4-11 cells, 243 nM in the assay with THP-1 cells and 956 nM in the assay with K-562 cells.

As to `Cc1nn(C(=O)N(C)C)c2c1C(c1ccc(Cl)cc1)N(c1cc(C)c(=O)n(C)c1)C2=O` (stereo not drawn) [Example 142], the figures for the 50% growth inhibitory concentration (GI50) with MV-4-11 cells, in the assay on THP-1 cells and in the assay with K-562 cells were 79.3 nM, 239 nM and 712 nM, respectively.

Take `COc1ncccc1-n1nc2c(c1C)C(c1ccc(F)cc1F)N(c1cc(C)c3nnc(C)n3c1)C2=O` (stereo not drawn) [Example 193, 4-(2,4-difluorophenyl)-5-(3,8-dimethyl-[1,2,4]triazolo[4,3-a]pyridin-6-yl)-2-(2-methoxypyridin-3-yl)-3-methyl-4,5-dihydropyrrolo-[3,4-c]pyrazol-6(2H)-one]: the 50% growth inhibitory concentration (GI50) worked out at 58 nM in the assay on MV-4-11 cells, 66.2 nM with THP-1 cells and 202 nM in the assay on K-562 cells.

As to `Cc1[nH]nc2c1C(c1ccc(Cl)cc1F)N(c1cc(C)c(=O)n(C)c1)C2=O` (stereo not drawn) [Example 196, 4-(4-chloro-2-fluorophenyl)-5-(1,5-dimethyl-6-oxo-1,6-dihydropyridin-3-yl)-3-methyl-4,5-dihydropyrrolo-[3,4-c]pyrazol-6(2H)-one], the GI50 in the assay with MV-4-11 cells worked out at 144 nM; in the assay on THP-1 cells, 204 nM; in the assay on K-562 cells, 921 nM.

For `Cc1cc(N2C(=O)c3c(c(C(F)(F)F)nn3C3CC3)C2c2ccc(Cl)cc2)cn(C)c1=O` (stereo not drawn) [Example 45, 4-(4-chlorophenyl)-1-cyclopropyl-5-(1,5-dimethyl-6-oxo-1,6-dihydropyridin-3-yl)-3-(trifluoromethyl)-4,5-dihydropyrrolo[3,4-c]pyrazol-6(1H)-one], the GI50 was 251 nM in the assay with MV-4-11 cells, 357 nM with THP-1 cells and 994 nM with K-562 cells.

For `CCc1nn(-c2cnc(OC)nc2OC)c2c1C(c1ccc(Cl)cc1)N(c1cc(C)c(=O)n(C)c1)C2=O` (stereo not drawn) [Example 60, 4-(4-chlorophenyl)-1-(2,4-dimethoxypyrimidin-5-yl)-5-(1,5-dimethyl-6-oxo-1,6-dihydropyridin-3-yl)-3-ethyl-4,5-dihydropyrrolo[3,4-c]pyrazol-6(1H)-one], the figures for the GI50 in the assay with MV-4-11 cells, in the assay on THP-1 cells and in the assay on K-562 cells were 86.9 nM, 166 nM and 456 nM, respectively.

Take `Cc1nn(C2CC2)c2c1[C@@H](c1ccc(Cl)cc1)N(c1cc(C)c(=O)n(C)c1)C2=O` [Example 49, (R)-4-(4-chlorophenyl)-1-cyclopropyl-5-(1,5-dimethyl-6-oxo-1,6-dihydropyridin-3-yl)-3-methyl-4,5-dihydropyrrolo-[3,4-c]pyrazol-6(1H)-one]: the 50% growth inhibitory concentration (GI50) came out at 24.1 nM in the assay on MV-4-11 cells, 29 nM with THP-1 cells and 120 nM with K-562 cells.

`CCOC(=O)N1CC(n2nc(C)c3c2C(=O)N(c2cc(C)c4nnc(C)n4c2)C3c2ccc(Cl)cc2)C1` (stereo not drawn) [Example 156, Ethyl 3-(4-(4-chlorophenyl)-5-(3,8-dimethyl-[1,2,4]triazolo[4,3-a]pyridin-6-yl)-3-methyl-6-oxo-5,6-dihydropyrrolo[3,4-c]pyrazol-1(4H)-yl)azetidine-1-carboxylate]: the concentration for 50% growth inhibition (GI50) in the assay with MV-4-11 cells is 35.6 nM; in the assay on THP-1 cells, 69.6 nM; with K-562 cells it was 374 nM.

`Cc1cc(N2C(=O)c3nn(C4CC4)c(C)c3[C@H]2c2ccc(Cl)cc2)cn(C)c1=O` [Example 21, (R)-4-(4-chlorophenyl)-2-cyclopropyl-5-(1,5-dimethyl-6-oxo-1,6-dihydropyridin-3-yl)-3-methyl-4,5-dihydropyrrolo[3,4-c]pyrazol-6(2H)-one]: the figures for the 50% growth inhibitory concentration (GI50) in the assay with MV-4-11 cells, with THP-1 cells and in the assay with K-562 cells were 22.3 nM, 36.6 nM and 266 nM, respectively.

As to `CCc1nn(CCO)c2c1C(c1ccc(Cl)cc1)N(c1cc(C)c(=O)n(C)c1)C2=O` (stereo not drawn) [Example 78, 4-(4-chlorophenyl)-5-(1,5-dimethyl-6-oxo-1,6-dihydropyridin-3-yl)-3-ethyl-1-(2-hydroxyethyl)-4,5-dihydropyrrolo-[3,4-c]pyrazol-6(1H)-one], the values for the 50% growth inhibitory concentration (GI50) in the assay with MV-4-11 cells, in the assay with THP-1 cells and in the assay on K-562 cells were 52 nM, 85.4 nM and 392 nM, respectively.

Regarding `COc1ncc(-n2nc3c(c2C)C(c2ccc(Cl)cc2)N(c2cc(C)c(=O)n(C)c2)C3=O)c(OC)n1` (stereo not drawn) [Example 56, 4-(4-chlorophenyl)-2-(2,4-dimethoxypyrimidin-5-yl)-5-(1,5-dimethyl-6-oxo-1,6-dihydropyridin-3-yl)-3-methyl-4,5-dihydropyrrolo[3,4-c]pyrazol-6(2H)-one], the GI50 in the assay on MV-4-11 cells was 57.4 nM; with THP-1 cells, 70.2 nM; in the assay on K-562 cells, 265 nM.

As to `COCc1nn(C2CC2)c2c1[C@@H](c1ccc(Cl)cc1)N(c1cc(C)c3nnc(C)n3c1)C2=O` [Example 163, (R)-4-(4-chlorophenyl)-1-cyclopropyl-5-(3,8-dimethyl-[1,2,4]triazolo[4,3-a]pyridin-6-yl)-3-(methoxymethyl)-4,5-dihydropyrrolo-[3,4-c]pyrazol-6(1H)-one], the values for the GI50 with MV-4-11 cells, with THP-1 cells and in the assay on K-562 cells were 10.3 nM, 17.5 nM and 79.8 nM, respectively.
